# Patent US12187702B2, “Sulfonamideurea compounds” (Inflazome Limited, priority 2018, dated 2025)
# pIC50: −log10 of the molar value. Counter-ions that a name gives are not always drawn.
# Legend:
# NLRP3 [1] = biological target: T1, NLRP3 (Homo sapiens, UniProt Q96P20); assay: Human whole blood IL-1β release assay (LPS + nigericin, AlphaLisa); type: cell-based; parameters: Plate out 80 μl of whole blood containing 1 μg/ml of LPS; from tissue; host or cells: human whole blood from healthy donors; details: human whole blood, 1 μg/ml LPS, 10 μM nigericin; IL-1β release; read-out: HWB IC50
# Method in brief: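 Healthy-donor Li-heparin whole blood containing 1 μg/ml LPS incubated with compound (8-point half-log dilution, 10 μM top) for 3 h at 37 °C, then with 10 μM nigericin for 1 h. Supernatant IL-1β measured by AlphaLisa; IC50 from 4-parameter variable-slope fit.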
# NLRP3 [2] = biological target: T1, NLRP3; assay: THP-1 cells pyroptosis assay (LPS + nigericin, resazurin read-out); type: cell-based; parameters: Seed THP-1 cells (25,000 cells/well) containing 1.0 μg/ml LPS; host or cells: THP-1 cells; details: THP-1 cells, 1 μg/ml LPS, 5 μM nigericin; NLRP3 inhibitory activity; read-out: THP IC50
# Method in brief: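 THP-1 cells (25,000/well) primed with 1 μg/ml LPS in serum-free RPMI, treated 3 h with compound (8-point half-log series, 10 μM top, 0.1% DMSO), then 5 μM nigericin for 1 h at 37 °C. Viability read by 100 μM resazurin fluorescence after 1-2 h; IC50 from 4-parameter fit.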
# [3] = PK, intravenous administration; type: in vivo, male Sprague Dawley rats; details: male, Sprague Dawley, plasma, rat; for clearance / half-life: dose per compound as in Table 3; for AUC: dose per compound as in Table 3 (0.08-1.86 mg/kg); for Vd: dose per compound as in Table 3, read-out: Vdss
# Method: (§1) Pharmacokinetic parameters were determined in male Sprague Dawley rats (Charles River, UK, 250-350 g; or Vital River Laboratory Animal Technology Co Ltd, Beijing, China, 7-9 weeks old). Animals were individually housed during the study and maintained under a 12 h light/dark cycle.
# (§2) For intravenous administration, compounds were formulated as a solution in water or DMSO:PBS [10:90] in 2 mL/kg dosing volume and administered via tail or jugular vein. For oral administration, compounds were formulated as a solution in 0.5% w/v methyl cellulose in water in 5 mL/kg dosing volume and administered orally.
# (§3) Serial blood samples (about 120-300 μL) were taken from each animal at each of 8 time-points post dose (0.083, 0.25, 0.5, 1, 2, 4, 8 and 24 h) or at each of 12 time-points post dose (0.03, 0.1, 0.17, 0.25, 0.5, 1, 2, 4, 6, 8, 12 and 24 h) or pre-dose and at each of 9 time-points post dose (0.25, 0.5, 1, 2, 4, 6, 8, 12 and 24 h). Samples were held on ice for no longer than 30 minutes before centrifugation (10,000 rpm (8,385 g) for 3 minutes; or 5,696 rpm (3,000 g) for 15 minutes) for plasma generation. Plasma was frozen on dry ice prior to bioanalysis. PK parameters were generated from LC-MS/MS data using Dotmatics or Phoenix WinNonlin 6.3 software.
# PK, oral administration = type: in vivo, male Sprague Dawley rats; details: male, Sprague Dawley, plasma, rat, 3 mg/kg
# Method: as §1, §2, §3
# T1 sequence (Q96P20 whole entry): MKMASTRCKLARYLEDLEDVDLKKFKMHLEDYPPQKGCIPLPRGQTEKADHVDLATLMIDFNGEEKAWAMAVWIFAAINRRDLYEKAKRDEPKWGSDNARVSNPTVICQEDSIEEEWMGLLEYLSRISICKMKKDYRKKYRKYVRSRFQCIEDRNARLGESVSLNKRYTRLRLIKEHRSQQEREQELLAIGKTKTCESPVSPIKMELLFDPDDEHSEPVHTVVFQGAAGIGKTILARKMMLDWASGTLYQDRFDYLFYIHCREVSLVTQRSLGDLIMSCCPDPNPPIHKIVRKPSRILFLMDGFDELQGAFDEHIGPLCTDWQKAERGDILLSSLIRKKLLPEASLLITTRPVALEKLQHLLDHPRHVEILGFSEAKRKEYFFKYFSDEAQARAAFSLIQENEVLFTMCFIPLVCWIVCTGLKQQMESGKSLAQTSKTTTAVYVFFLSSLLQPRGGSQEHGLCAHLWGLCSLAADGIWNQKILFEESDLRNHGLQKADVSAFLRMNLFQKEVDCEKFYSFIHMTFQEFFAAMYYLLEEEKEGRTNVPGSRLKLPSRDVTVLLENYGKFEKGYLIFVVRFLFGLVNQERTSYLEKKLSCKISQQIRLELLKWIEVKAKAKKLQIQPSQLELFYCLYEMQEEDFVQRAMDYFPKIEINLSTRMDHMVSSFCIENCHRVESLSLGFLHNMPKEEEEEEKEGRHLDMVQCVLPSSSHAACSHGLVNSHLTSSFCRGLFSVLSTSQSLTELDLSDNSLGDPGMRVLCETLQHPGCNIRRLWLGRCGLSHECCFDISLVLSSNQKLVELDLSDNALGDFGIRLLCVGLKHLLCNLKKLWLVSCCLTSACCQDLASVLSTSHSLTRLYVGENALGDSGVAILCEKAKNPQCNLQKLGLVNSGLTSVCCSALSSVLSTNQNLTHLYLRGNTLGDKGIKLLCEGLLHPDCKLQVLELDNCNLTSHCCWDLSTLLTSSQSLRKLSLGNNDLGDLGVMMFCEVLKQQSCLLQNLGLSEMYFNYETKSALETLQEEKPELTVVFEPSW
Compound,pIC50 (NLRP3 [1]),pIC50 (NLRP3 [2]),clearance [3] [mL/min/kg],half-life [3] [h],AUC [3] [ng·h/mL],Vd [3] [L/kg],"AUC (PK, oral administration) [ng·h/mL]","CL/F (PK, oral administration) [mL/min/kg]","Cmax (PK, oral administration) [ng/mL]","Tmax (PK, oral administration) [h]","bioavailability (PK, oral administration) [%]","half-life (PK, oral administration) [h]"
"CC(C)N1CCC(N(C)S(=O)(=O)NC(=O)Nc2c3c(cc4c2CCC4)CCC3)C1 (stereo not drawn) [Example 36, 3-(N-(1-isopropylpyrrolidin-3-yl)-N-methylsulfamoyl)-1-(1,2,3,5,6,7-hexahydro-s-indacen-4-yl)urea, potassium salt]",> 6.00,> 6.30,2.8,1.1,5910,0.23,–,–,–,–,–,–
"CN(C)CCNS(=O)(=O)NC(=O)Nc1c2c(cc3c1CCC3)CCC2 [Example 8, 3-(N-(2-(Dimethylamino)ethyl)sulfamoyl)-1-(1,2,3,5,6,7-hexahydro-s-indacen-4-yl)urea]",> 6.30,> 6.00,7.3,4,2290,0.61,–,–,–,–,–,–
"CN1CCCCC1CNS(=O)(=O)NC(=O)Nc1c2c(cc3c1CCC3)CCC2 (stereo not drawn) [Example 20, 3-(N-((1-Methylpiperidin-2-yl)methyl)sulfamoyl)-1-(1,2,3,5,6,7-hexahydro-s-indacen-4-yl)urea, potassium salt]",> 6.30,> 6.30,7.1,1.2,2360,0.4,–,–,–,–,–,–
"COc1cc(-c2ccc3c(c2NC(=O)NS(=O)(=O)N(C)[C@@H]2CCN(C)C2)CCC3)ccn1 [Example 110, (R)-3-(N-Methyl-N-(1-methylpyrrolidin-3-yl)sulfamoyl)-1-(5-(2-methoxypyridin-4-yl)-2,3-dihydro-1H-inden-4-yl)urea, potassium salt]",> 6.30,> 6.30,20,3.9,835,1.6,1020,50,277,0.67,41,3.4
"CN1CCC(N(C)S(=O)(=O)NC(=O)Nc2c3c(cc4c2CCC4)CCC3)C1 (stereo not drawn) [Example 11, 3-(N-Methyl-N-(1-methylpyrrolidin-3-yl)sulfamoyl)-1-(1,2,3,5,6,7-hexahydro-s-indacen-4-yl)urea, potassium salt]",> 6.30,> 6.30,2.9,2.7,5660,0.59,–,–,–,–,–,–

# The next lines start with the values.
pIC50 (NLRP3 [1]),pIC50 (NLRP3 [2]),clearance [3] [mL/min/kg],half-life [3] [h],AUC [3] [ng·h/mL],Vd [3] [L/kg],"AUC (PK, oral administration) [ng·h/mL]","CL/F (PK, oral administration) [mL/min/kg]","Cmax (PK, oral administration) [ng/mL]","Tmax (PK, oral administration) [h]","bioavailability (PK, oral administration) [%]","half-life (PK, oral administration) [h]",Compound
> 6.30,> 6.30,17,4.8,979,1.3,1380,38,318,0.67,47,4,"COc1cc(-c2ccc3c(c2NC(=O)NS(=O)(=O)N(C)[C@H]2CCN(C)C2)CCC3)ccn1 [Example 111, (S)-3-(N-methyl-N-(1-methylpyrrolidin-3-yl)sulfamoyl)-1-(5-(2-methoxypyridin-4-yl)-2,3-dihydro-1H-inden-4-yl)urea, potassium salt]"
> 6.30,> 6.30,2.3,2.7,7270,0.35,–,–,–,–,–,–,"CN(C)CCN(C)S(=O)(=O)NC(=O)Nc1c2c(cc3c1CCC3)CCC2 [Example 6, potassium salt]"
